IC50 data for 30 molecules are collected here from patent publication US20100076015A1, “Aminopyridine Derivatives” (VANTIA LIMITED, priority 2008, published 2010).

The assay has as its target T1, Human KLK1 (Homo sapiens, UniProt P06870).
T1 construct: purchased Callbiochem (Calbiochem)
Description: Determination of the IC50 for KLK1 (fluorogenic substrate H-DVal-Leu-Arg-AFC). Type of assay: biochemical. Particulars: 37° C. Summed up:
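Human KLK1 incubated at 37 °C with fluorogenic substrate H-DVal-Leu-Arg-AFC and a range of test compound concentrations. Residual activity was taken as initial reaction rate from absorbance change at 410 nm, and the IC50 derived from it.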

T1 sequence (P06870 25-262): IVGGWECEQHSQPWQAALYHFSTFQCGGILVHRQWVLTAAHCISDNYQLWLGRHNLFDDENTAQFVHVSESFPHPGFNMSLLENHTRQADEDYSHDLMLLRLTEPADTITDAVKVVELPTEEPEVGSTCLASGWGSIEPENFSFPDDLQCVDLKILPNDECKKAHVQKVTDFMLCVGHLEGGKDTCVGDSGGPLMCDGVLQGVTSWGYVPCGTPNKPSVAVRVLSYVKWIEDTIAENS

By IC50 is commonly meant the midpoint of a concentration-inhibition curve. High values mean weaker potency in that assay, low ones greater potency in that assay. As for `Cc1cc(C)c(C(=O)N[C@@H](Cc2ccc(C(C)(C)C)cc2)C(=O)NCc2ccc(N)nc2)[nH]1` [Example 256, 3,5-Dimethyl-1H-pyrrole-2-carboxylic acid [(S)-1-[(6-amino-pyridin-3-ylmethyl)-carbamoyl]-2-(4-tert-butyl-phenyl)-ethyl]-amide], the 50% inhibitory concentration (IC50) is 122 nM. This lies in the sub-micromolar range.
To `Cc1nc(N)ccc1CNC(=O)[C@H](Cc1cccc2ccccc12)NC(=O)[C@H]1CCCN1C` [Example 9, (R)-1-Methyl-pyrrolidine-2-carboxylic acid [(S)-1-[(6-amino-2-methyl-pyridin-3-ylmethyl)-carbamoyl]-2-naphthalen-1-yl-ethyl]-amide] belongs 6.3 nM; to `CCN(CC)[C@H](CO)C(=O)N[C@@H](Cc1ccc(F)c(F)c1)C(=O)NCc1ccc(N)nc1` [Example 363, (R)—N-[(S)-1-[(6-Amino-pyridin-3-ylmethyl)-carbamoyl]-2-(3,4-difluoro-phenyl)-ethyl]-2-diethylamino-3-hydroxy-propionamide], 84.4 nM.
To `Cc1cccc(C[C@H](NC(=O)[C@H]2CCCN2C)C(=O)NCc2ccc(N)nc2)c1` [Example 105, (R)-1-Methyl-pyrrolidine-2-carboxylic acid {(S)-1-[(6-amino-pyridin-3-ylmethyl)-carbamoyl]-2-m-tolyl-ethyl}-amide] belongs 3.8 nM.
To `Cc1cc(C)c(C(=O)N[C@@H](Cc2ccc(O)cc2)C(=O)NCc2ccc(N)nc2)[nH]1` [Example 247, 3,5-Dimethyl-1H-pyrrole-2-carboxylic acid [(S)-1-[(6-amino-pyridin-3-ylmethyl)-carbamoyl]-2-(4-hydroxy-phenyl)-ethyl]-amide] belongs 200 nM.
`CN[C@H](C)C(=O)N[C@@H](Cc1ccc(F)cc1)C(=O)NCc1ccc(N)nc1` [Example 87, (R)—N-[(S)-1-[(6-Amino-pyridin-3-ylmethyl)-carbamoyl]-2-(4-fluoro-phenyl)-ethyl]-2-methylamino-propionamide] yielded a half-inhibitory concentration (IC50) of 6.4 nM.
`Cc1cc(C)c(C(=O)N[C@@H](Cc2ccc(Cl)cc2)C(=O)NCc2ccc(N)nc2)[nH]1` [Example 246, 3,5-Dimethyl-1H-pyrrole-2-carboxylic acid [(S)-1-[(6-amino-pyridin-3-ylmethyl)-carbamoyl]-2-(4-chloro-phenyl)-ethyl]-amide] yielded a concentration for half-maximal inhibition (IC50) of 3.5 nM. This IC50 lies about 1.8-fold lower than the previous one.
`Cc1nc(N)ccc1CNC(=O)[C@H](Cc1ccc(F)c(F)c1)NC(=O)CN1CCCCC1` [Example 430, (S)—N-(6-Amino-2-methyl-pyridin-3-ylmethyl)-3-(3,4-difluoro-phenyl)-2-(2-piperidin-1-yl-acetylamino)-propionamide]: the IC50 is 59.8 nM.
To `CCC(C)[C@@H](N)C(=O)N[C@@H](Cc1c[nH]c2ccccc12)C(=O)NCc1ccc(N)nc1` (stereo partly drawn) [Example 40, (R)-2-Amino-3-methyl-pentanoic acid [(S)-1-[(6-amino-pyridin-3-ylmethyl)-carbamoyl]-2-(1H-indol-3-yl)-ethyl]-amide] belongs 6.6 nM; to `Cc1cc(C)c(C(=O)N[C@@H](Cc2c[nH]c3ccccc23)C(=O)NCc2ccc(N)nc2C)[nH]1` [Example 283, 3,5-Dimethyl-1H-pyrrole-2-carboxylic acid [(S)-1-[(6-amino-2-methyl-pyridin-3-ylmethyl)-carbamoyl]-2-(1H-indol-3-yl)-ethyl]-amide], 5.1 nM.
On to `CC(C)[C@@H](N)C(=O)N[C@@H](CC1CCCC2CCCCC21)C(=O)NCc1ccc(N)nc1` (stereo partly drawn) [Example 14, (R)-2-Amino-N-[(S)-1-[(6-amino-pyridin-3-ylmethyl)-carbamoyl]-2-(decahydro-naphthalen-1-yl)-ethyl]-3-methyl-butyramide], for which it took 0.96 nM to reach half-maximal inhibition (IC50).
“(R)—N-[(S)-1-[(6-Amino-pyridin-3-ylmethyl)-carbamoyl]-2-(3,4-dichloro-phenyl)-ethyl]-3-methyl-2-methylamino-butyramide [Example 340]” registered a 50% inhibitory concentration (IC50) of 0.38 nM.
For the molecule `Cc1ccc(C[C@H](NC(=O)[C@H]2CCCN2C)C(=O)NCc2ccc(N)nc2)cc1` [Example 106, (R)-1-Methyl-pyrrolidine-2-carboxylic acid {(S)-1-[(6-amino-pyridin-3-ylmethyl)-carbamoyl]-2-p-tolyl-ethyl}-amide], the concentration for half-maximal inhibition (IC50) is 3.9 nM.
The figure for `CCC(C)[C@@H](N)C(=O)N[C@@H](Cc1ccc(F)cc1)C(=O)NCc1ccc(N)nc1` (stereo partly drawn) [Example 33, (R)-2-Amino-3-methyl-pentanoic acid [(S)-1-[(6-amino-pyridin-3-ylmethyl)-carbamoyl]-2-(4-fluoro-phenyl)-ethyl]-amide] is 5.3 nM; for `Nc1ccc(CNC(=O)[C@H](Cc2ccc(F)c(F)c2)NC(=O)CN2CCCC2)cn1` [Example 366, (S)—N-(6-Amino-pyridin-3-ylmethyl)-3-(3,4-difluoro-phenyl)-2-(2-pyrrolidin-1-yl-acetylamino)-propionamide] it is 54.5 nM; for `CC(C(=O)N[C@@H](Cc1ccc(F)c(F)c1)C(=O)NCc1ccc(N)nc1)N1CCCCC1` (stereo partly drawn) [Example 354, N-[(S)-1-[(6-Amino-pyridin-3-ylmethyl)-carbamoyl]-2-(3,4-difluoro-phenyl)-ethyl]-2-piperidin-1-yl-propionamide] it is 11.6 nM.
With `Cc1cc[nH]c1C(=O)N[C@@H](Cc1ccc(Cl)c(Cl)c1)C(=O)NCc1ccc(N)nc1` [Example 264, 3-Methyl-1H-pyrrole-2-carboxylic acid [(S)-1-[(6-amino-pyridin-3-ylmethyl)-carbamoyl]-2-(3,4-dichloro-phenyl)-ethyl]-amide], 3.1 nM corresponded to half-maximal inhibition (IC50).
`Cc1cc(C)c(C(=O)N[C@@H](Cc2csc3ccccc23)C(=O)NCc2ccc(N)nc2)[nH]1` [Example 250, 3,5-Dimethyl-1H-pyrrole-2-carboxylic acid {(S)-1-[(6-amino-pyridin-3-ylmethyl)-carbamoyl]-2-benzo[b]thiophen-3-yl-ethyl}-amide] yielded an IC50 of 0.8 nM. Against the preceding molecule, the IC50 is about 3.9-fold lower.
On to `CN1CCC[C@@H]1C(=O)N[C@@H](Cc1ccncc1)C(=O)NCc1ccc(N)nc1` [Example 112, (R)-1-Methyl-pyrrolidine-2-carboxylic acid {(S)-1-[(6-amino-pyridin-3-ylmethyl)-carbamoyl]-2-pyridin-4-yl-ethyl}-amide], for which half-maximal inhibition (IC50) required 257 nM.
To `Cc1ccc(C[C@H](NC(=O)[C@H]2CCCN2C(C)C)C(=O)NCc2ccc(N)nc2)cc1` [Example 123, (R)-1-Isopropyl-pyrrolidine-2-carboxylic acid {(S)-1-[(6-amino-pyridin-3-ylmethyl)-carbamoyl]-2-p-tolyl-ethyl}-amide] belongs 1.4 nM; to `Cc1cc(C)c(C(=O)N[C@@H](Cc2ccc(Cl)c(Cl)c2)C(=O)NCc2ccc(N)nc2C)[nH]1` [Example 280, 3,5-Dimethyl-1H-pyrrole-2-carboxylic acid [(S)-1-[(6-amino-2-methyl-pyridin-3-ylmethyl)-carbamoyl]-2-(3,4-dichloro-phenyl)-ethyl]-amide], 1.9 nM.
The figure for `Nc1ccc(CNC(=O)[C@H](NC(=O)[C@@H](N)Cc2ccccc2)C(C2CCCCC2)C2CCCCC2)cn1` [Example 216, (S)-2-Amino-N-{(R)-1-[(6-amino-pyridin-3-ylmethyl)-carbamoyl]-2,2-dicyclohexyl-ethyl}-3-phenyl-propionamide] is 24.4 nM; for `CCC(C)[C@@H](NC)C(=O)N[C@@H](Cc1ccc(F)cc1)C(=O)NCc1ccc(N)nc1` (stereo partly drawn) [Example 44, (R)-3-Methyl-2-methylamino-pentanoic acid [(S)-1-[(6-amino-pyridin-3-ylmethyl)-carbamoyl]-2-(4-fluoro-phenyl)-ethyl]-amide] it is 5.4 nM.
As to `Nc1ccc(CNC(=O)[C@H](Cc2csc3ccccc23)NC(=O)[C@H]2CCCCN2)cn1` [Example 78, (R)-Piperidine-2-carboxylic acid {(S)-1-[(6-amino-pyridin-3-ylmethyl)-carbamoyl]-2-benzo[b]thiophen-3-yl-ethyl}-amide], half-maximal inhibition (IC50) required 1.2 nM. Compared with the last molecule, the IC50 is about 4.5-fold lower.
The figure for `CCC(C)[C@H](NC)C(=O)N[C@@H](C(=O)NCc1ccc(N)nc1)C(C1CCCCC1)C1CCCCC1` (stereo partly drawn) [Example 219, (S)-3-Methyl-2-methylamino-pentanoic acid {(R)-1-[(6-amino-pyridin-3-ylmethyl)-carbamoyl]-2,2-dicyclohexyl-ethyl}-amide] is 3.6 nM; for `CN(CC(=O)N[C@@H](Cc1ccc(F)c(F)c1)C(=O)NCc1ccc(N)nc1)CC1CCCCC1` [Example 169, (S)—N-(6-Amino-pyridin-3-ylmethyl)-2-[2-(cyclohexylmethyl-methyl-amino)-acetylamino]-3-(3,4-difluoro-phenyl)-propionamide] it is 334 nM; for `Nc1ccc(CNC(=O)[C@H](Cc2ccc(Cl)c(Cl)c2)NC(=O)[C@H]2CCCN2Cc2ccccc2)cn1` [Example 7, (R)-1-Benzyl-pyrrolidine-2-carboxylic acid [(S)-1-[(6-amino-pyridin-3-ylmethyl)-carbamoyl]-2-(3,4-dichloro-phenyl)-ethyl]-amide] it is 10.5 nM.
Molecule `Nc1ccc(CNC(=O)[C@H](Cc2ccc(Cl)c(Cl)c2)NC(=O)[C@H](N)CCc2ccccc2)cn1` [Example 67, (R)-2-Amino-N-[(S)-1-[(6-amino-pyridin-3-ylmethyl)-carbamoyl]-2-(3,4-dichloro-phenyl)-ethyl]-4-phenyl-butyramide] had an IC50 of 3.1 nM. This IC50 is about 3.4-fold lower than that of the molecule before.
`CCN(CC)CC(=O)N[C@@H](Cc1ccc(F)cc1)C(=O)NCc1ccc(N)nc1C` [Example 428, (S)—N-(6-Amino-2-methyl-pyridin-3-ylmethyl)-2-(2-diethylamino-acetylamino)-3-(4-fluoro-phenyl)-propionamide] showed an IC50 of 9.9 nM. Compared with the last molecule, the IC50 is about 3.2-fold higher.
Regarding `CN1CCC[C@@H]1C(=O)N[C@@H](Cc1ccc(Cl)cc1Cl)C(=O)NCc1ccc(N)nc1` [Example 110, (R)-1-Methyl-pyrrolidine-2-carboxylic acid [(S)-1-[(6-amino-pyridin-3-ylmethyl)-carbamoyl]-2-(2,4-dichloro-phenyl)-ethyl]-amide], 4 nM corresponded to half-maximal inhibition (IC50). This IC50 is about 2.5-fold lower than that of the molecule before.
